{"source": "patent US20150232900A1", "about": "“PAPER FOLDING METHOD AND DEVICE FOR MANUFACTURING FILTER CARTRIDGES” (MYKO TECH PRIVATE LIMITED, priority 2012, published 2015)", "format_in_all_cases": "cell-based", "key": {"[1]": {"system": "Retrovirus XMRV (Xenotropic Murine Leukemia Virus)", "experiment": "Focus forming unit (FFU) inhibition assay, Retrovirus XMRV in PG4 cell line", "conditions": "PG4 cells, positive control, tested 0.33-100 μM", "procedure": "EPS from two thraustochytrids designated MT-5 and MT-6 were tested for inhibition of retrovirus A stock solution of 20 mg/ml of the EPS was prepared by solubilizing in 10% DMSO for injection into the cell lines infected by the virus. Various dilutions of the stock EPS were prepared in the tissue culture medium, Dulbecco ? Modified Eagle medium with 2% fetal bovine serum and antibiotics. The dilutions were: (1) 100 ? /ml; (2) 33 ? /ml; 10 ? /ml; (4) 3.3 μg/ml; (5) 1.0 μg/ml; (6) 0.33 μg/ml. A focus forming unit (FFU) inhibition assay in 6-well plates in vitro was carried out. A known concentration of cells from PG4 cell line was used to seed 6-well or 12-well plates for 24 hours. Each of the 6 different concentrations of the EPS was then added to duplicate wells and incubated for 1 hour and then approximately 50-100 focus forming units of the Retrovirus XMRV (Xenotropic Murine Leukemia Virus) in 10 ? were added to each well. Virus was allowed to absorb to the cells for 2 hours. After the incubation the virus was removed and agarose solution with EPS at each different was added to the appropriate infected well Plates were incubated in a 37° C. CO2 incubator for 5 days. The drug Tenofovir was kept as a positive control, at concentrations of 100, 33, 10, 3.3, 1.0 and 0.33 μM concentrations. At the end of incubation, cultures were fixed and stained with crystal violet to visualize the foci. […]"}, "[2]": {"system": "Human Cytomegalovirus AD-169", "experiment": "Plaque forming unit (PFU) inhibition assay, Human Cytomegalovirus AD-169 in MRC5 cell line", "conditions": "Human Cytomegalovirus AD-169, MRC5 cells, positive control, tested 0.33-100 μM", "procedure": "EPS from the thraustochytrid designated MT-5 were tested for inhibition of Cytomegalovirus. A stock solution of 20 mg/ml of the EPS was prepared by solubilizing in 10% DMSO for injection into the cell lines infected by the virus.\nVarious dilutions of the stock EPS were prepared in the tissue culture medium, Dulbecco ? Modified Eagle medium with 2% fetal bovine serum and antibiotics. The dilutions were: (1) 100 ? /ml; (2) 33 ? /ml; (3) 10 ? /ml; (4) 3.3 μg/ml; (5) 1.0 ? /ml; (6) 0.33 μg/ml. A plaque forming unit (PFU) inhibition assay in 6-well plates in vitro was carried out. A known concentration of cells from MRC5 cell line was used to seed 6-well or 12-well plates for 24 hours. Each of the 6 different concentrations of the EPS was then added to duplicate wells and incubated for 1 hour and then approximately 50-100 plaque forming units of the Human Cytomegalovirus AD-169 in 10 ? were added to each well. Virus was allowed to absorb to the cells for 2 hours. After the incubation the virus was removed and agarose solution with EPS at each different was added to the appropriate infected well. Plates were incubated in a 37° C. CO2 incubator for 5 days. The drug Acyclovir was kept as a positive control, at concentrations of 100, 33, 10, 3.3, 1.0 and 0.33 μM concentrations. […] Plaques were counted and numbers recorded. […]"}, "Human Adenovirus 5": {"system": "Human Adenovirus 5", "experiment": "Plaque forming unit (PFU) inhibition assay, Human Adenovirus 5 in A549 cell line", "conditions": "Human Adenovirus 5, A549 cells, positive control, tested 0.33-100 μM; not at less", "procedure": "EPS from two thraustochytrids, designated MT-5 and MT-6 were tested for inhibition of Adenovirus. A stock solution of 20 mg/ml of the EPS was prepared by solubilizing in 10% DMSO for injection into the cell lines infected by the virus. Various dilutions of the stock EPS were prepared in the tissue culture medium, Dulbecco ? Modified Eagle medium with 2% fetal bovine serum and antibiotics. The dilutions were: (1) 100 μg/ml; (2) 33 μg/ml; (3) 10 μg/ml; (4) 3.3 μg/ml; (5) 1.0 μg/ml; (6) 0.33 μg/ml. A plaque forming unit (PFU) inhibition assay in 6-well plates in vitro was carried out. A known concentration of cells from A549 cell line was used to seed 6-well or 12-well plates for 24 hours. Each of the 6 different concentrations of the EPS was then added to duplicate wells and incubated for 1 hour and then approximately 50-100 plaque forming units of Human Adenovirus 5 in 10 ? were added to each well. Virus was allowed to absorb to the cells for 2 hours. After the incubation the virus was removed and agarose solution with EPS at each different was added to the appropriate infected well. Plates were incubated in a 37° C. CO2 incubator for 5 days. The drug Cidofovir was kept as a positive control, at concentrations of 100, 33, 10, 3.3, 1.0 and 0.33 μM concentrations. […] Plaques were counted and numbers recorded. […]"}}}
{"smiles": "C[C@H](Cn1cnc2c(N)ncnc21)OCP(=O)(O)O", "note": "[Tenofovir]", "values": [{"measurement": "concentration above which the drug was effective (viral foci)", "setting": "[1]", "value": "> 10.0", "unit": "µM"}, {"measurement": "concentration that completely inhibited focal formation", "setting": "[1]", "value": 100, "unit": "µM"}]}
{"smiles": "Nc1nc2c(ncn2COCCO)c(=O)[nH]1", "note": "[Acyclovir]", "values": [{"measurement": "effective concentration (not effective at any concentration tested, up to the maximum)", "setting": "[2]", "value": "> 100.0", "unit": "µM"}]}
{"smiles": "Nc1ccn(C[C@@H](CO)OCP(=O)(O)O)c(=O)n1", "note": "[Cidofovir]", "values": [{"measurement": "concentration that completely inhibited plaque formation", "setting": "Human Adenovirus 5", "value": 100, "unit": "µM"}]}
